Experimental data published in patent US20250263370A1 (Tay Therapeutics Limited, priority 2022, published 2025).
Values joined by “and” are separate entries in the source; they are usually repeats but may differ in a detail not shown here. Equal entries are not always repeated.

System: collagen-induced arthritis
Assay: Collagen-induced arthritis (CIA) model in rats: body weight, paw volume, clinical scores, clinical observations; for Average detailed clinical score, left hind limb: key of the grades not given here; for Average detailed clinical score, right hind limb: key of the grades not given here; for Detailed Clinical Scores, left forelimb: key of the grades not given here; for Detailed Clinical Scores, left hind limb: key of the grades not given here; for Detailed Clinical Scores, right forelimb: key of the grades not given here; for Detailed Clinical Scores, right hind limb: key of the grades not given here; for Detailed Clinical Scores, score: key of the grades not given here; for Detailed Clinical Scores: left forelimb: key of the grades not given here; for Detailed Clinical Scores: left hind limb: key of the grades not given here; for Detailed Clinical Scores: right forelimb: key of the grades not given here; for Detailed Clinical Scores: right hind limb: key of the grades not given here; for Detailed Clinical Scores: score: key of the grades not given here; for Mean overall clinical score ± SD: key of the grades not given here; for overall clinical score: key of the grades not given here
Conditions: for Average detailed clinical score, right hind limb / Average detailed clinical score, score / Mean overall clinical score ± SD / Overall clinical score / Average detailed clinical score, left forelimb / Average detailed clinical score, left hind limb / Average detailed clinical score, right forelimb / Detailed Clinical Scores, left forelimb / Detailed Clinical Scores, left hind limb / Detailed Clinical Scores, right forelimb / Detailed Clinical Scores, right hind limb / Detailed Clinical Scores, score / Detailed Clinical Scores: left forelimb / Detailed Clinical Scores: left hind limb / Detailed Clinical Scores: right forelimb / Detailed Clinical Scores: right hind limb / Detailed Clinical Scores: score: CIA rats; for Overall clinical score: individual animals #1-8; for Mean animal paw volume ± SD: group mean; for Detailed Clinical Scores, left forelimb / Detailed Clinical Scores, left hind limb / Detailed Clinical Scores, right forelimb / Detailed Clinical Scores, right hind limb / Detailed Clinical Scores, score / Detailed Clinical Scores: left forelimb / Detailed Clinical Scores: left hind limb / Detailed Clinical Scores: right forelimb / Detailed Clinical Scores: right hind limb / Detailed Clinical Scores: score: individual animals ID 1-8; for Animal paw volume percent change: individual animals

With `CNC(=O)c1[nH]c(C(=O)NC2CCC2)cc1O[C@@H](C)c1ccccc1` (stereo in doubt) [Example 101, N^5-cyclobutyl-N^2-methyl-3-(1-phenylethoxy)-1H-pyrrole-2,5-dicarboxamide] the “Average detailed clinical score, right hind limb” value (Day 12, 10 mg/kg) was 0.25, the “Average detailed clinical score, score” value (Day 12, 10 mg/kg) was 0.50 and the “Mean overall clinical score ± SD” value (Day 12, 10 mg/kg) was 1 ± 1. The Overall clinical score (Day 12, 10 mg/kg) was 1 and 0 and 2, the “Average detailed clinical score, left forelimb” value (Day 12, 30 mg/kg) was 0.00 and the “Average detailed clinical score, left hind limb” value (Day 12, 30 mg/kg) was 0.00. The “Average detailed clinical score, right forelimb” value (Day 12, 30 mg/kg) was 0.00, the “Average detailed clinical score, right hind limb” value (Day 12, 30 mg/kg) was 0.13 and the “Average detailed clinical score, score” value (Day 12, 30 mg/kg) was 0.13. For the same compound, the “Mean overall clinical score ± SD” value (Day 12, 30 mg/kg) was 0 ± 0, the “Mean animal paw volume ± SD” value (Day 13, L paw, 3 mg/kg) was 1.53 mL and the “Mean animal paw volume ± SD” value (Day 13, L paw, 10 mg/kg) was 1.52 mL. For the same compound, the “Mean animal paw volume ± SD” value (Day 13, L paw, 30 mg/kg) was 1.35 mL, the “Mean animal paw volume ± SD” value (Day 13, R paw, 3 mg/kg) was 1.46 mL and the “Mean animal paw volume ± SD” value (Day 13, R paw, 10 mg/kg) was 1.45 mL. For the same compound, the “Mean animal paw volume ± SD” value (Day 13, R paw, 30 mg/kg) was 1.37 mL, the “Detailed Clinical Scores, left forelimb” value (Day 13, 3 mg/kg) was 0 and the “Detailed Clinical Scores, left hind limb” value (Day 13, 3 mg/kg) was 1 (4×) and 0 (3×) and 2. For the same compound, the “Detailed Clinical Scores, right forelimb” value (Day 13, 3 mg/kg) was 0 (6×) and 1 (2×), the “Detailed Clinical Scores, right hind limb” value (Day 13, 3 mg/kg) was 0 (7×) and 1 and the “Detailed Clinical Scores, score” value (Day 13, 3 mg/kg) was 1 (2×) and 2 (2×) and 0 (3×) and 3. For the same compound, the “Detailed Clinical Scores, left forelimb” value (Day 13, 10 mg/kg) was 0, the “Detailed Clinical Scores, left hind limb” value (Day 13, 10 mg/kg) was 2 (3×) and 0 (4×) and 1 and the “Detailed Clinical Scores, right forelimb” value (Day 13, 10 mg/kg) was 0. The “Detailed Clinical Scores, right hind limb” value (Day 13, 10 mg/kg) was 1 and 0 (6×) and 2, the “Detailed Clinical Scores, score” value (Day 13, 10 mg/kg) was 3 and 0 (4×) and 4 and 2 and 1 and the “Detailed Clinical Scores, left forelimb” value (Day 13, 30 mg/kg) was 0. The “Detailed Clinical Scores, left hind limb” value (Day 13, 30 mg/kg) was 0, the “Detailed Clinical Scores, right forelimb” value (Day 13, 30 mg/kg) was 0 and the “Detailed Clinical Scores, right hind limb” value (Day 13, 30 mg/kg) was 1 and 0 (7×). For the same compound, the “Detailed Clinical Scores, score” value (Day 13, 30 mg/kg) was 1 and 0 (7×), the “Average detailed clinical score, left forelimb” value (Day 13, 3 mg/kg) was 0.00 and the “Average detailed clinical score, left hind limb” value (Day 13, 3 mg/kg) was 0.75. The “Average detailed clinical score, right forelimb” value (Day 13, 3 mg/kg) was 0.25, the “Average detailed clinical score, right hind limb” value (Day 13, 3 mg/kg) was 0.13 and the “Average detailed clinical score, score” value (Day 13, 3 mg/kg) was 1.13. The “Mean overall clinical score ± SD” value (Day 13, 3 mg/kg) was 1 ± 1, the Overall clinical score (Day 13, 3 mg/kg) was 1 (2×) and 2 (2×) and 0 (3×) and 3 and the “Average detailed clinical score, left forelimb” value (Day 13, 10 mg/kg) was 0.00. For the same compound, the “Average detailed clinical score, left hind limb” value (Day 13, 10 mg/kg) was 0.88, the “Average detailed clinical score, right forelimb” value (Day 13, 10 mg/kg) was 0.00 and the “Average detailed clinical score, right hind limb” value (Day 13, 10 mg/kg) was 0.38. The “Average detailed clinical score, score” value (Day 13, 10 mg/kg) was 1.25, the “Mean overall clinical score ± SD” value (Day 13, 10 mg/kg) was 1 ± 2 and the Overall clinical score (Day 13, 10 mg/kg) was 3 and 0 and 4. The “Average detailed clinical score, left forelimb” value (Day 13, 30 mg/kg) was 0.00, the “Average detailed clinical score, left hind limb” value (Day 13, 30 mg/kg) was 0.00 and the “Average detailed clinical score, right forelimb” value (Day 13, 30 mg/kg) was 0.00. For the same compound, the “Average detailed clinical score, right hind limb” value (Day 13, 30 mg/kg) was 0.13, the “Average detailed clinical score, score” value (Day 13, 30 mg/kg) was 0.13 and the “Mean overall clinical score ± SD” value (Day 13, 30 mg/kg) was 0 ± 0. The “Mean animal paw volume ± SD” value (Day 14, L paw, 3 mg/kg) was 1.69 mL, the “Mean animal paw volume ± SD” value (Day 14, L paw, 10 mg/kg) was 1.70 mL and the “Mean animal paw volume ± SD” value (Day 14, L paw, 30 mg/kg) was 1.35 mL. For the same compound, the “Mean animal paw volume ± SD” value (Day 14, R paw, 3 mg/kg) was 1.59 mL, the “Mean animal paw volume ± SD” value (Day 14, R paw, 10 mg/kg) was 1.59 mL and the “Mean animal paw volume ± SD” value (Day 14, R paw, 30 mg/kg) was 1.37 mL. For the same compound, the “Detailed Clinical Scores, left forelimb” value (Day 14, 3 mg/kg) was 0, the “Detailed Clinical Scores, left hind limb” value (Day 14, 3 mg/kg) was 1 (7×) and 3 and the “Detailed Clinical Scores, right forelimb” value (Day 14, 3 mg/kg) was 0 (6×) and 1 (2×). The “Detailed Clinical Scores, right hind limb” value (Day 14, 3 mg/kg) was 1 (2×) and 0 (4×) and 2 and 3, the “Detailed Clinical Scores, score” value (Day 14, 3 mg/kg) was 2 (3×) and 4 and 1 (3×) and 6 and the “Detailed Clinical Scores, left forelimb” value (Day 14, 10 mg/kg) was 0. For the same compound, the “Detailed Clinical Scores, left hind limb” value (Day 14, 10 mg/kg) was 3 (3×) and 4 and 0 (4×), the “Detailed Clinical Scores, right forelimb” value (Day 14, 10 mg/kg) was 0 and the “Detailed Clinical Scores, right hind limb” value (Day 14, 10 mg/kg) was 1 (3×) and 3 and 0 (4×). For the same compound, the “Detailed Clinical Scores, score” value (Day 14, 10 mg/kg) was 4 (2×) and 6 and 5 and 0 (4×), the “Detailed Clinical Scores, left forelimb” value (Day 14, 30 mg/kg) was 0 and the “Detailed Clinical Scores, left hind limb” value (Day 14, 30 mg/kg) was 0. For the same compound, the “Detailed Clinical Scores, right forelimb” value (Day 14, 30 mg/kg) was 0, the “Detailed Clinical Scores, right hind limb” value (Day 14, 30 mg/kg) was 1 and 0 (7×) and the “Detailed Clinical Scores, score” value (Day 14, 30 mg/kg) was 1 and 0 (7×). The “Average detailed clinical score, left forelimb” value (Day 14, 3 mg/kg) was 0.00, the “Average detailed clinical score, left hind limb” value (Day 14, 3 mg/kg) was 1.25 and the “Average detailed clinical score, right forelimb” value (Day 14, 3 mg/kg) was 0.25. For the same compound, the “Average detailed clinical score, right hind limb” value (Day 14, 3 mg/kg) was 0.88, the “Average detailed clinical score, score” value (Day 14, 3 mg/kg) was 2.38 and the “Mean overall clinical score ± SD” value (Day 14, 3 mg/kg) was 2 ± 2. For the same compound, the Overall clinical score (Day 14, 3 mg/kg) was 2 (3×) and 4 and 1 (3×) and 6, the “Average detailed clinical score, left forelimb” value (Day 14, 10 mg/kg) was 0.00 and the “Average detailed clinical score, left hind limb” value (Day 14, 10 mg/kg) was 1.63. For the same compound, the “Average detailed clinical score, right forelimb” value (Day 14, 10 mg/kg) was 0.00, the “Average detailed clinical score, right hind limb” value (Day 14, 10 mg/kg) was 0.75 and the “Average detailed clinical score, score” value (Day 14, 10 mg/kg) was 2.38. The “Mean overall clinical score ± SD” value (Day 14, 10 mg/kg) was 2 ± 3, the Overall clinical score (Day 14, 10 mg/kg) was 4 (2×) and 6 and the “Average detailed clinical score, left forelimb” value (Day 14, 30 mg/kg) was 0.00. The “Average detailed clinical score, left hind limb” value (Day 14, 30 mg/kg) was 0.00, the “Average detailed clinical score, right forelimb” value (Day 14, 30 mg/kg) was 0.00 and the “Average detailed clinical score, right hind limb” value (Day 14, 30 mg/kg) was 0.13. The “Average detailed clinical score, score” value (Day 14, 30 mg/kg) was 0.13, the “Mean overall clinical score ± SD” value (Day 14, 30 mg/kg) was 0 ± 0 and the “Mean animal paw volume ± SD” value (Day 15, L paw, 3 mg/kg) was 1.86 mL. The “Animal paw volume percent change” value (Day 15, L paw, 3 mg/kg) was 31.80% and 28.90% and 44.87% and 22.68% and 86.59% and 50.55% and 30.34%, the “Mean animal paw volume ± SD” value (Day 15, L paw, 10 mg/kg) was 1.83 mL and the “Animal paw volume percent change” value (Day 15, L paw, 10 mg/kg) was 53.43% and 36.90% and 80.93% and 93.39% and 7.66% and 22.69%. For the same compound, the “Mean animal paw volume ± SD” value (Day 15, L paw, 30 mg/kg) was 1.45 mL, the “Mean animal paw volume ± SD” value (Day 15, R paw, 3 mg/kg) was 1.92 mL and the “Animal paw volume percent change” value (Day 15, R paw, 3 mg/kg) was 25.86% and 20.97% and 74.62% and 27.24% and 84.29% and 50.19% and 48.69%. The “Mean animal paw volume ± SD” value (Day 15, R paw, 10 mg/kg) was 1.75 mL, the “Animal paw volume percent change” value (Day 15, R paw, 10 mg/kg) was 37.01% and 45.42% and 94.98% and 47.10% and 6.18% and 10.73% and the “Mean animal paw volume ± SD” value (Day 15, R paw, 30 mg/kg) was 1.48 mL. The “Detailed Clinical Scores: left forelimb” value (Day 15, 3 mg/kg) was 0, the “Detailed Clinical Scores: left hind limb” value (Day 15, 3 mg/kg) was 1 (3×) and 2 (3×) and 4 and 3 and the “Detailed Clinical Scores: right forelimb” value (Day 15, 3 mg/kg) was 0 (6×) and 1 (2×). The “Detailed Clinical Scores: right hind limb” value (Day 15, 3 mg/kg) was 1 (3×) and 3 (2×) and 2 (2×) and 4, the “Detailed Clinical Scores: score” value (Day 15, 3 mg/kg) was 2 and 3 (3×) and 6 (2×) and 8 and 4 and the “Detailed Clinical Scores: left forelimb” value (Day 15, 10 mg/kg) was 0. For the same compound, the “Detailed Clinical Scores: left hind limb” value (Day 15, 10 mg/kg) was 3 (2×) and 2 and 4 and 0 (2×) and 1 (2×), the “Detailed Clinical Scores: right forelimb” value (Day 15, 10 mg/kg) was 0 and the “Detailed Clinical Scores: right hind limb” value (Day 15, 10 mg/kg) was 2 (3×) and 4 and 0 (2×) and 1 (2×). The “Detailed Clinical Scores: score” value (Day 15, 10 mg/kg) was 5 and 4 and 7 and 6 and 0 and 1 (2×) and 2, the “Detailed Clinical Scores: left forelimb” value (Day 15, 30 mg/kg) was 0 and the “Detailed Clinical Scores: left hind limb” value (Day 15, 30 mg/kg) was 0 (6×) and 2 and 1. The “Detailed Clinical Scores: right forelimb” value (Day 15, 30 mg/kg) was 0, the “Detailed Clinical Scores: right hind limb” value (Day 15, 30 mg/kg) was 1 (2×) and 0 (5×) and 2 and the “Detailed Clinical Scores: score” value (Day 15, 30 mg/kg) was 1 and 2 (3×) and 0 (4×). The “Average detailed clinical score, left forelimb” value (Day 15, 3 mg/kg) was 0.00.
